Measured values as given in patent US9856220B2 (AbbVie Deutschland GmbH & Co. KG, priority 2011, dated 2018).

Biological target: PDE10A (Homo sapiens (Human), UniProt Q9Y233)
Test: Measurement of PDE activity (recombinant PDE, cAMP HTRF)
Type: biochemical
Settings: 20 nM cyclic nucleotide substrate, 60 minutes at 29 C
Method: a) Measurement of PDE Activity
The recombinant PDE proteins are used in in vitro enzymatic reaction for measurement of PDE activity. These recombinant proteins, including PDE10A (human, rat and mouse PDE10) and isoforms of PDEs 1, 3, 4, and 5, were purchased from commercial vendor BPS Bioscience. The enzymatic activity of PDEs was determined by cAMP measurement kit from CisBio (IBA) using HTRF technology.
The PDE enzymatic reaction was carried out in assay buffer (20 mM Tris-HCl pH7.5, 10 mM MgCl2, 0.1% bovine serum albumin) containing enzyme and substrate. […] The substrate cyclic nucleotide (cAMP or cGMP) concentration used in the assay was 20 nM for PDE10, and 100 nM for other PDEs. The inhibitory effect of compound was determined by incubating various concentration of inhibitor in the enzymatic assay. […] Next, the compound at varying concentration was mixed with PDE enzyme. The reaction was initiated by addition of cyclic nucleotide substrate, and incubated for 60 minutes at 29 C. The reaction was stopped by addition of lysis buffer from assay kit. The cAMP-d2 and anti-cAMP cryptate in the lysis buffer detected the level of cAMP left from the PDE hydrolysis reaction. […] Thus, IC50 value of inhibitor can be obtained by plotting inhibitor concentration against PDE activity at that concentration.

Sequence of PDE10A (Q9Y233 whole entry, species assumed): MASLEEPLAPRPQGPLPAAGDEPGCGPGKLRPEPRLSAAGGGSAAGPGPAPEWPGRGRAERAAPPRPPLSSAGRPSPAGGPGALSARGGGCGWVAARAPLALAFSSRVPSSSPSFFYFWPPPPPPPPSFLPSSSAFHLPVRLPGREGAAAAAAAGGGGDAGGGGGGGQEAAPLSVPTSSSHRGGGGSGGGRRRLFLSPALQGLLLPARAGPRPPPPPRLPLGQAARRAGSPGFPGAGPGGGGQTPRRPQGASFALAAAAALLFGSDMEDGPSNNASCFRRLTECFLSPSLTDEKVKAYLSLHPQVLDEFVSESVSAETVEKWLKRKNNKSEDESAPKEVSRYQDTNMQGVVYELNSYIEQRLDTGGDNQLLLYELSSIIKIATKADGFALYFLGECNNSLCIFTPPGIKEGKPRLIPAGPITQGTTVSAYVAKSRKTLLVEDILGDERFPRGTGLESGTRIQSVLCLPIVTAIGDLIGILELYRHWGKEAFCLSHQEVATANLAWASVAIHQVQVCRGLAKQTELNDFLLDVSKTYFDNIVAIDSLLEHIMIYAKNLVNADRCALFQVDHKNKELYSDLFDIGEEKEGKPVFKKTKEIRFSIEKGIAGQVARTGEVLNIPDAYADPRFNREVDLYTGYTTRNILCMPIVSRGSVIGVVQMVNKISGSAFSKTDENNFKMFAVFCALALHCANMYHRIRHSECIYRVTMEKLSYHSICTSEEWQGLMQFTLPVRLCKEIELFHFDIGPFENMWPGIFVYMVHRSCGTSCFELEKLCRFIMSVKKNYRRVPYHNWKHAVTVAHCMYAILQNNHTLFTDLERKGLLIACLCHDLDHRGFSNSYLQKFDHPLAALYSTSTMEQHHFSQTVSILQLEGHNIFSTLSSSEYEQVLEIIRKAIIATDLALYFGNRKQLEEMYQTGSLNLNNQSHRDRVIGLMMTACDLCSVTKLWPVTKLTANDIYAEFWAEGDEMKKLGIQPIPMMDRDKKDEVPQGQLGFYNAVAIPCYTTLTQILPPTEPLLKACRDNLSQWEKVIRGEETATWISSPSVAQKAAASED

IC50 [µM] | Structure (SMILES)
0.2 to 0.5 | CCn1cc(C(=O)Nc2ccncc2)c2cc(OC)c(OC)cc2c1=O [Example 164, 2-Ethyl-6,7-dimethoxy-1-oxo-N-(pyridin-4-yl)-1,2-dihydroisoquinoline-4-carboxamide]
0.2 to 0.5 | CCC(CC)n1cc(C(=O)NCc2cc(C)sc2C)c2cc(OC)c(OC)cc2c1=O [Example 242, N-((2,5-dimethylthiophen-3-yl)methyl)-6,7-dimethoxy-1-oxo-2-(pentan-3-yl)-1,2-dihydroisoquinoline-4-carboxamide]
0.2 to 0.5 | CCn1cc(C(=O)NCc2ccccc2OC)c2cc(OC)c(OC)cc2c1=O [Example 140]
0.1 to 0.2 | CCC(CC)n1nc(C(=O)NC2CCc3ncccc32)c2cc(OC)c(OC)cc2c1=O (stereo not shown) [Example 233, 3-(1-Ethyl-propyl)-6,7-dimethoxy-4-oxo-3,4-dihydro-phthalazine-1-carboxylic acid (6,7-dihydro-5H-[1]pyrindin-5-yl)-amide]
0.1 to 0.2 | CCC(CC)n1cc(C(=O)NC2CCc3cc(F)ccc32)c2cc(OC)c(OC)cc2c1=O (stereo not shown) [Example 252, N-(5-Fluoro-2,3-dihydro-1H-inden-1-yl)-6,7-dimethoxy-1-oxo-2-(pentan-3-yl)-1,2-dihydroisoquinoline-4-carboxamide]
0.2 to 0.5 | CCn1cc(C(=O)NCc2ccc(F)cc2F)c2cc(OC)c(OC)cc2c1=O [Example 34, 2-Ethyl-6,7-dimethoxy-1-oxo-1,2-dihydro-isoquinoline-4-carboxylic acid 2,4-difluoro-benzylamide]
0.2 to 0.5 | CCn1cc(C(=O)Nc2ccccc2)c2cc(OC)c(OC)cc2c1=O [Example 151, 2-Ethyl-6,7-dimethoxy-1-oxo-N-phenyl-1,2-dihydroisoquinoline-4-carboxamide]
0.2 to 0.5 | CCn1cc(C(=O)NCc2c(F)cccc2F)c2cc(OC)c(OC)cc2c1=O [Example 35, 2-Ethyl-6,7-dimethoxy-1-oxo-1,2-dihydro-isoquinoline-4-carboxylic acid 2,6-difluoro-benzylamide]
0.2 to 0.5 | CCn1cc(C(=O)NCc2ccc(C)cc2OC(C)(C)CC)c2cc(OC)c(OC)cc2c1=O [Example 277, N-[[2-(1,1-Dimethylpropoxy)-4-methyl-phenyl]methyl]-2-ethyl-6,7-dimethoxy-1-oxo-isoquinoline-4-carboxamide]
0.2 to 0.5 | CCn1cc(C(=O)NCc2ccc(C)cc2F)c2cc(OC)c(OC)cc2c1=O [Example 273, 2-Ethyl-N-[(2-fluoro-4-methyl-phenyl)methyl]-6,7-dimethoxy-1-oxo-isoquinoline-4-carboxamide]
0.1 to 0.2 | CCC(CC)n1cc(C(=O)NC2CCc3ccc(C)cc32)c2cc(OC)c(OC)cc2c1=O (stereo not shown) [Example 260, 6,7-Dimethoxy-N-(6-methyl-2,3-dihydro-1H-inden-1-yl)-1-oxo-2-(pentan-3-yl)-1,2-dihydroisoquinoline-4-carboxamide]
0.1 to 0.2 | CCCCNC(=O)c1cn(CCc2ccc3ccccc3n2)c(=O)c2cc(OC)ccc12 [Example 182, 7-Methoxy-1-oxo-2-(2-quinolin-2-yl-ethyl)-1,2-dihydro-isoquinoline-4-carboxylic acid butylamide]
0.2 to 0.5 | CCn1cc(C(=O)NCc2ccc(C)cc2OCCOC)c2cc(OC)c(OC)cc2c1=O [Example 293, 2-Ethyl-6,7-dimethoxy-N-[[2-(2-methoxyethoxy)-4-methyl-phenyl]methyl]-1-oxo-isoquinoline-4-carboxamide]
0.2 to 0.5 | CCc1ccc(CNC(=O)c2cn(C(CC)CC)c(=O)c3cc(OC)c(OC)cc23)s1 [Example 266, N-((5-Ethylthiophen-2-yl)methyl)-6,7-dimethoxy-1-oxo-2-(pentan-3-yl)-1,2-dihydroisoquinoline-4-carboxamide]
0.2 to 0.5 | CCn1cc(C(=O)NCc2cccc(F)c2)c2cc(OC)c(OC)cc2c1=O [Example 31, 2-Ethyl-6,7-dimethoxy-1-oxo-1,2-dihydro-isoquinoline-4-carboxylic acid 3-fluoro-benzylamide]

Second part, the compound before the results:

Structure (SMILES) | IC50 [µM]
CCn1cc(C(=O)NCc2cccc(F)c2F)c2cc(OC)c(OC)cc2c1=O [Example 33, 2-Ethyl-6,7-dimethoxy-1-oxo-1,2-dihydro-isoquinoline-4-carboxylic acid 2,3-difluoro-benzylamide] | 0.2 to 0.5
CCn1cc(C(=O)NCc2ccc(C)c(F)c2F)c2cc(OC)c(OC)cc2c1=O [Example 278, N-[(2,3-Difluoro-4-methyl-phenyl)methyl]-2-ethyl-6,7-dimethoxy-1-oxo-isoquinoline-4-carboxamide] | 0.2 to 0.5
CCn1cc(C(=O)NCc2cccc(C)c2)c2cc(OC)c(OC)cc2c1=O [Example 153] | 0.1 to 0.2
CCCCCNC(=O)c1cn(CC)c(=O)c2cc(OC)c(OC)cc12 [Example 21, 2-Ethyl-6,7-dimethoxy-1-oxo-1,2-dihydro-isoquinoline-4-carboxylic acid pentylamide] | 0.2 to 0.5
CCC(CC)n1cc(C(=O)NCc2ccncc2)c2cc(OC)c(OC)cc2c1=O [Example 261, 6,7-Dimethoxy-1-oxo-2-(pentan-3-yl)-N-(pyridin-4-ylmethyl)-1,2-dihydroisoquinoline-4-carboxamide] | 0.2 to 0.5
CCn1cc(C(=O)NCc2ccc(C)cc2OC(C)(C)C)c2cc(OC)c(OC)cc2c1=O [Example 276, N-[(2-tert-Butoxy-4-methyl-phenyl)methyl]-2-ethyl-6,7-dimethoxy-1-oxo-isoquinoline-4-carboxamide] | 0.2 to 0.5
CCn1cc(C(=O)NCc2ccc(C)cc2OCC(F)(F)F)c2cc(OC)c(OC)cc2c1=O [Example 288, 2-Ethyl-6,7-dimethoxy-N-[[4-methyl-2-(2,2,2-trifluoroethoxy)phenyl]methyl]-1-oxo-isoquinoline-4-carboxamide] | 0.2 to 0.5
CCn1cc(C(=O)Nc2ccc(F)cc2)c2cc(OC)c(OC)cc2c1=O [Example 156, 2-Ethyl-N-(4-fluorophenyl)-6,7-dimethoxy-1-oxo-1,2-dihydroisoquinoline-4-carboxamide] | 0.2 to 0.5
CCC(CC)n1cc(C(=O)NCc2cc(F)cc(F)c2)c2cc(OC)c(OC)cc2c1=O [Example 188, 2-(1-Ethyl-propyl)-6,7-dimethoxy-1-oxo-1,2-dihydro-isoquinoline-4-carboxylic acid 3,5-difluoro-benzylamide] | 0.1 to 0.2
CCn1cc(C(=O)Nc2ccccc2OC)c2cc(OC)c(OC)cc2c1=O [Example 146, 2-Ethyl-6,7-dimethoxy-N-(2-methoxyphenyl)-1-oxo-1,2-dihydroisoquinoline-4-carboxamide] | 0.2 to 0.5
CCn1nc(C(=O)NC2CCc3ncccc32)c2cc(OC)c(OC)cc2c1=O (stereo not shown) [Example 129, 3-Ethyl-6,7-dimethoxy-4-oxo-3,4-dihydro-phthalazine-1-carboxylic acid (6,7-dihydro-5H-[1]pyrindin-5-yl)-amide] | < 0.1
CCC(CC)n1cc(C(=O)NCc2ccn(C)n2)c2cc(OC)c(OC)cc2c1=O [Example 269, 6,7-Dimethoxy-N-((1-methyl-1H-pyrazol-3-yl)methyl)-1-oxo-2-(pentan-3-yl)-1,2-dihydroisoquinoline-4-carboxamide] | 0.2 to 0.5
CCn1cc(C(=O)Nc2cccc(C)c2)c2cc(OC)c(OC)cc2c1=O [Example 145, 2-Ethyl-6,7-dimethoxy-1-oxo-N-m-tolyl-1,2-dihydroisoquinoline-4-carboxamide] | 0.2 to 0.5
